Like-named read-outs stand apart in the source and are kept apart here.
B1: Ang-1: angiopoietin-1, major physiological ligand for Tie-2, used to stimulate HUVEC cells (protein, UniProt Q15389 16-498, looked up)
Angiopoietin-1: HIGCSNQRRSPENSGRRYNRIQHGQCAYTFILPEHDGNCRESTTDQYNTNALQRDAPHVEPDFSSQKLQHLEHVMENYTQWLQKLENYIVENMKSEMAQIQQNAVQNHTATMLEIGTSLLSQTAEQTRKLTDVETQVLNQTSRLEIQLLENSLSTYKLEKQLLQQTNEILKIHEKNSLLEHKILEMEGKHKEELDTLKEEKENLQGLVTRQTYIIQELEKQLNRATTNNSVLQKQQLELMDTVHNLVNLCTKEGVLLKGGKREEEKPFRDCADVYQAGFNKSGIYTIYINNMPEPKKVFCNMDVNGGGWTVIQHREDGSLDFQRGWKEYKMGFGNPSGEYWLGNEFIFAITSQRQYMLRIELMDWEGNRAYSQYDRFHIGNEKQNYRLYLKGHTGTAGKQSSLILHGADFSTKDADNDNCMCKCALMLTGGWWFDACGPSNLNGMFYTAGQNHGKLNGIKWHYFKGPSYSLRSTTMMIRPLDF

Assays:
RSK = conditions: HUVEC, increasing VEGF concentrations, 5 min stimulation time (FIG. 10B)
Protocol: (§1) • 1. Serum-starve human umbilical vein endothelial cell line (HUVEC) culture overnight before use. • 2. Stimulate cell lines with VEGF in culture media for a set period of time (1, 3, 5, 9, 14 minutes) at 37° C. Exemplary doses of VEGF are 0, 2, 10, 25, 50, 250, 1000 ng/mL. • 3. Aspirate culture media, transfer onto ice, and add lysis buffer to lyse cells in situ. • 4. Scrape and transfer lysate to microfuge tube. Incubate on ice for 30 min. Microfuge at 14,000 rpm, 4° C., for 10 min. (Centrifugation is optional.) • 5. Collect supernatants as lysates and aliquot for storage at −80° C. until use. Assay:
(§2) The total assay volume was 40 ul. The lysate volume was adjusted to 30 ul with lysis buffer.

Erk = conditions: HUVEC, increasing VEGF concentrations, 5 min stimulation time (FIG. 10A)
Protocol: as §1, §2

VEGFR2-VEGFR2 homodimers [1] = target: T1, VEGFR2-VEGFR2 homodimers (Homo sapiens, UniProt P35968)
Protocol: • 1. […] Scrape and transfer lysate to microfuge tube. Incubate on ice for 30 min. […]

Akt = conditions: HUVEC, increasing VEGF concentrations, data not shown
Text: Results of the assays are illustrated in FIGS. 10A, 10B and 10C.

BAD = BAD phosphorylation in HUVEC cell lysates, releasable molecular tag assay; format: cell-based, human; conditions: increasing VEGF concentrations, 5 min stimulation time (FIG. 10C)
Protocol: • 1. […] Scrape and transfer lysate to microfuge tube. Incubate on ice for 30 min. […] (Centrifugation is optional.) • 5. […] Assay:
(§3) The total assay volume was 40 ul. […] The detection limit was ˜1000 cell-equivalent of lysates.
Pro52_anti-BAD (Total), 5 nM
Pro46_anti-Phospho-BAD (Phosphorylation), 5 nM
Pro53_anti-phospho-RSK (Phosphorylation), 5 nM • 1. […] Add 20 μl of Antibody mixture. • 3. […] Empty filter plate by vacuum suction. • 6. […] Repeat step 6 one more time. • 8. […] Illuminate the plate for 10 min. • 10.

VEGFR2 = VEGFR2 (Homo sapiens, UniProt P35968)
Protocol: (§4) In this example, VEGFR2-VEGFR2 homodimers and phosphorylation states were measured in cell lysates from several cell lines after treatment with various concentrations of vascular endothelial growth factor (VEGF). Measurements were made using three binding compounds and a cleaving probe as described below.
as §1
(§5) Assay design: As illustrated diagrammatically in FIG. 7A, VEGFR2-VEGFR2 (R2-R2) homodimers (900) are quantified ratiometrically based on the binding of a cleaving probe (902), a first bind compound (904) which is specific for the same antigenic determinant on VEGFR2 as the cleaving probe, a second binding compound (906) which is specific for a different antigenic determinant on VEGFR2 from the cleaving probe, and a third binding compound (908) which is specific for phosphorylated tyrosine. A photosensitizer is attached to the cleaving probe (902) via an avidin-biotin linkage, and the first, second, and third binding compounds are labeled with molecular tags Pro10, Pro14, and Pro2, respectively.
(§6) The total assay volume was 40 ul. The lysate volume was adjusted to 30 ul with lysis buffer. The antibodies are diluted in lysis buffer up to 10 ul. Typically ˜5000 to 15000 cell-equivalent of lysates is used per reaction. The detection limit is ˜1000 cell-equivalent of lysates.
(§7) Procedure: Final concentrations of pre-mixed binding compounds (i.e. molecular tag- or biotin-antibody conjugates) in reaction: • Pro10_anti-VEGFR2: 0.25 ug/ml (VEGFR2 homodimer) • Pro14_anti-VEGFR2: 0.25 ug/ml (total VEGFR2) • Pro2_anti-phospho-Tyr: 0.0125 ug/ml (phosphorylation) • Biotin_anti-VEGFR2: 0.25 ug/ml • 1. To assay 96-well, add 10 ul antibody mix to 30 ul lysate and incubate for 1 hour at RT. • 2. Add 2 ul streptavidin-derivatized cleaving probe (final 2 ug/well) to assay well and incubate for 45 min. • 3. Add 150 ul of wash buffer to 96-well filter plate (Millipore MAGVN2250) and incubate for 1 hr at RT for blocking. • 4. Empty filter plate by vacuum suction.

VEGFR2-VEGFR2 homodimers [2] = target: T1, VEGFR2-VEGFR2 homodimers; remark: listed apart in the source
Protocol: as §4, §1, §5, §6, §7

Tie2-Tie2 homodimers = target: T2, Tie2-Tie2 homodimers (Homo sapiens, UniProt Q02763); experiment: Tie2 homodimerization in HUVEC cell lysates, releasable molecular tag assay; format: cell-based
T2 construct: endogenous in cells; host or cells: HUVEC
Protocol: (§8) • 1. […] Stimulate cell lines with 200 ng/mL Ang-1 in culture media for a set period of time (10, 30 minutes) at 37° C. • 3. […] Scrape and transfer lysate to microfuge tube. Incubate on ice for 30 min. […] (Centrifugation is optional.) • 5. […] Assay:
(§9) Assay design: As illustrated diagrammatically in FIG. 4C, Tie2-Tie2 homodimers are quantified ratiometrically based on the binding of cleaving probe (134) and binding compounds (130), and (132). A photosensitizer indicated by “PS” is attached to cleaving probe (134) via an avidin-biotin linkage, and binding compounds (130), and (132) are labeled with molecular tags Pro10, and Pro14, respectively.
as §3
Pro10_anti-Tie2: 0.25 ug/ml (Tie2 homodimer)
(§10) Pro14_anti-Tie2: 0.25 ug/ml (total Tie2)
(§11) Biotin_anti-Tie2: 0.25 ug/ml • 1. […] Empty filter plate by vacuum suction. […] Repeat one time. • 6. […] Repeat one time. • 7. […] Assay buffers are as previously described. Data Analysis: • 1. […] Report homodimerization of Tie2 as the corresponding RFU ratiometric to RFU from Pro14_anti-Tie2 from assay wells using biotin_anti-Tie2.

Tie2 = target: T3, Tie2 (Homo sapiens, UniProt Q02763); experiment: Total Tie2 receptor in HUVEC cell lysates, releasable molecular tag assay; format: cell-based; conditions: Ang-1 treatment (FIG. 8B)
T3 construct: endogenous in cells; host or cells: HUVEC
Protocol: as §8, §9, §3, §10, §11

T1 sequence (P35968 20-1356): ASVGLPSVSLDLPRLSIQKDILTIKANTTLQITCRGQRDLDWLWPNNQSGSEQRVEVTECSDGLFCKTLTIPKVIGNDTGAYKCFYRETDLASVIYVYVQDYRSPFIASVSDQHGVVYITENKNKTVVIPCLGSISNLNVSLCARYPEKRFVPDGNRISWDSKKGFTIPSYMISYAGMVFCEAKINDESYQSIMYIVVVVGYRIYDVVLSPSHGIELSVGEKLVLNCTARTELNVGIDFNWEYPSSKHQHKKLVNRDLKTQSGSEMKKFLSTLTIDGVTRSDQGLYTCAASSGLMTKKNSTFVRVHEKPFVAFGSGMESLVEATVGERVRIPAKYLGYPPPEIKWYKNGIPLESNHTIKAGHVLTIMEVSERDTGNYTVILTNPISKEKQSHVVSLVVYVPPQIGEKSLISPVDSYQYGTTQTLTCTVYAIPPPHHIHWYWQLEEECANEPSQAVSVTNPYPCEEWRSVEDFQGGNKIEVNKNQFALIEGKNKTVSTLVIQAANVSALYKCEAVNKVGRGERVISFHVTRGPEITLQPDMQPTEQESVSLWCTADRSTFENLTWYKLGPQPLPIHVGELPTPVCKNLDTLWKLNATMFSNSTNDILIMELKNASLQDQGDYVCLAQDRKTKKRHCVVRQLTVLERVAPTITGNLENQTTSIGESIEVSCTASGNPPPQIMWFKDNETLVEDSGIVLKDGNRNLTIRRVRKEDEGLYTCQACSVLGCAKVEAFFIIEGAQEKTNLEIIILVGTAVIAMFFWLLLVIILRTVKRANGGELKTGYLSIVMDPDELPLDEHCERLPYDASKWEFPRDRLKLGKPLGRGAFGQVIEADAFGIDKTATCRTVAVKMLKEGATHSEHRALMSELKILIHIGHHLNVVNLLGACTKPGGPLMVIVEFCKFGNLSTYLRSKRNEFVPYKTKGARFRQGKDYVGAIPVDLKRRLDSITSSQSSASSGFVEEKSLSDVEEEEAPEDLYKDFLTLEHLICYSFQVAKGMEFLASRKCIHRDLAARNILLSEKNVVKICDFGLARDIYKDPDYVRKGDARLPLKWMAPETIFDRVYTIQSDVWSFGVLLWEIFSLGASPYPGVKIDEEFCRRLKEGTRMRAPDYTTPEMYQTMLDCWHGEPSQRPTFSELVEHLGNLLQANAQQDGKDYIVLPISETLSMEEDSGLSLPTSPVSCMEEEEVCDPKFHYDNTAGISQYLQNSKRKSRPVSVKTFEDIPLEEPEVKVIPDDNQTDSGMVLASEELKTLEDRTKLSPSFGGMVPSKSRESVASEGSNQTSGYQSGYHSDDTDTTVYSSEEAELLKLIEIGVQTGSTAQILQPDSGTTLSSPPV
Sequence of VEGFR2 (P35968 20-1356): as above
T2 sequence (Q02763 23-1124): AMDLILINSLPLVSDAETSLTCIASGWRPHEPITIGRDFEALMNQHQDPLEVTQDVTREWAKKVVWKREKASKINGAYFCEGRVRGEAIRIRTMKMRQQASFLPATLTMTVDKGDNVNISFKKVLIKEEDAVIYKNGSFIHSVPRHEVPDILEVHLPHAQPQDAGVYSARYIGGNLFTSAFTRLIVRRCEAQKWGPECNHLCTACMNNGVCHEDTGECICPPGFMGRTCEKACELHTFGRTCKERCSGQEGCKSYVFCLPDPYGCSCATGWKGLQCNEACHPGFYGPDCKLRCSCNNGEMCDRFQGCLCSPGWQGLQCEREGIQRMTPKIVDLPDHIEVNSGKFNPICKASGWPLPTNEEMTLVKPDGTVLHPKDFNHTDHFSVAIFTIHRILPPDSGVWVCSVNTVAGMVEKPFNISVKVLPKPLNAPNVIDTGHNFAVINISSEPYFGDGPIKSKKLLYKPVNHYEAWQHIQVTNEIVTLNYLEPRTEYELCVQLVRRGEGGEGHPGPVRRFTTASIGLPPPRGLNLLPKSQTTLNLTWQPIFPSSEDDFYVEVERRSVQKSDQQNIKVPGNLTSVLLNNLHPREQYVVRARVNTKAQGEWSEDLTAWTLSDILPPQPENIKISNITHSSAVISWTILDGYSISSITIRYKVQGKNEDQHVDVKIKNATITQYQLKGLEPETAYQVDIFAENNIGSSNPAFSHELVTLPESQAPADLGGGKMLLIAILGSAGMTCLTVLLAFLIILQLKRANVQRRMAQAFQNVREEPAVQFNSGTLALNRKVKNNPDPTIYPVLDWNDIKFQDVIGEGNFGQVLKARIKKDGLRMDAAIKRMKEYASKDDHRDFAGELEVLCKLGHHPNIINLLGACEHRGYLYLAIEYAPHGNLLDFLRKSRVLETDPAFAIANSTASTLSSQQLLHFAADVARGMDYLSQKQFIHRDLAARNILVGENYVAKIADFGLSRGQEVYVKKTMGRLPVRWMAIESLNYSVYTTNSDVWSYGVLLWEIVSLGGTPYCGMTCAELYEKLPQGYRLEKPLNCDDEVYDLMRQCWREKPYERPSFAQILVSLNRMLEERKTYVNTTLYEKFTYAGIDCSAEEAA
T3 sequence (Q02763 23-1124): as above

| Molecule | phosphorylation state of RSK (RSK) | phosphorylation state of Erk (Erk) | VEGFR2 homodimerization (VEGFR2-VEGFR2 homodimers [1]) | phosphorylation of Akt (Akt) | phosphorylation state of BAD (BAD) | VEGFR2 phosphorylation (VEGFR2) | VEGFR2 phosphorylation over time (VEGFR2) | VEGFR2-VEGFR2 homodimer formation over time (VEGFR2-VEGFR2 homodimers [2]) | VEGFR2 homodimerization (VEGFR2-VEGFR2 homodimers [2]) | quantity of VEGFR2-VEGFR2 homodimers (VEGFR2-VEGFR2 homodimers [2]) | quantity of Tie2-Tie2 homodimers (Tie2-Tie2 homodimers; 200 ng/mL Ang-1, 10 min of stimulation (FIG. 8A)) | quantity of Tie2-Tie2 homodimers (Tie2-Tie2 homodimers; 200 ng/mL Ang-1, 30 min stimulation (FIG. 8A)) | total amount of Tie2 receptor (Tie2) |
| --- | --- | --- | --- | --- | --- | --- | --- | --- | --- | --- | --- | --- | --- |
| VEGF | increases on HUVEC cells with increasing concentrations of VEGF | increases on HUVEC cells with increasing concentrations of VEGF | large increase in VEGFR2 homodimerization | increased on HUVEC cells with increasing concentrations of VEGF | increases on HUVEC cells with increasing concentrations of VEGF | increases on HUVEC cells with increasing concentrations of VEGF | transient, peaking at 1 minute of stimulation and decreasing to background level by 5 minutes | form by 1 minute of VEGF stimulation, and remain after up to 14 minutes of stimulation | large increase in VEGFR2 homodimerization | increases on HUVEC cells with increasing concentrations of VEGF |  |  |  |
| B1 |  |  |  |  |  |  |  |  |  |  | increase on HUVEC cells | decreases from that level | does not change with Ang-1 treatment |

Reference: patent US7939267B2, “Detection of activation of endothelial cells as surrogate marker for angiogenesis” (Laboratory Corporation of America Holdings, priority 2004, dated 2011)
